The record followed here is BindingDB's records for doi:10.7270/Q28P5XZM (Nmmlsc, 2011).

pEC50: −log10 of the molar value.

The test deals with T1, General amino acid permease AGP1 (Saccharomyces cerevisiae (strain ATCC 204508 / S288c), UniProt P25376).
T1 sequence (P25376 whole entry): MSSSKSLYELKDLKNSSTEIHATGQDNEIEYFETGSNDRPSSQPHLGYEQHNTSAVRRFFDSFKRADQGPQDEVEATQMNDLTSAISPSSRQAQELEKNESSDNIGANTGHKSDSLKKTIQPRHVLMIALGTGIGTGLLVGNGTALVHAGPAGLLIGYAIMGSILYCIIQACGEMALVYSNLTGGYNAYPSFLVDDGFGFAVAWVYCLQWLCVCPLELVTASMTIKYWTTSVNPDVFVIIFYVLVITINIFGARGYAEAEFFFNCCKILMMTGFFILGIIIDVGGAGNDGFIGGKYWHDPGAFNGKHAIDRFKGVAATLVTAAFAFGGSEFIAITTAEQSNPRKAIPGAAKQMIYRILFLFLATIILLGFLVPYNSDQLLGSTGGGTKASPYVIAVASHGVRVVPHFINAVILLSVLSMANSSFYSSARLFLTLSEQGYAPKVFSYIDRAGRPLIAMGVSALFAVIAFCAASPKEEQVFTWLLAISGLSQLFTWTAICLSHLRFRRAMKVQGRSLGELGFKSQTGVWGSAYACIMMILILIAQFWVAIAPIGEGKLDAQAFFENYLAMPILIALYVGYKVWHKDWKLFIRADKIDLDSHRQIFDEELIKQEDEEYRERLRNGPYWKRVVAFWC
As to the kind of experiment: AGP1-GFP level modulation, analog dose series – cell-based, flow cytometry, S. cerevisiae, cherry pick 3, SAR follow-up (AID 488790). The note with it: inactive by the depositor's call.

Turning to `Cc1ccc(C(=O)Nc2nc(-c3ccccn3)cs2)o1` [5-methyl-N-[4-(2-pyridinyl)-2-thiazolyl]-2-furancarboxamide], the pEC50 is 3.11.

The compound `Nc1ncnc(Nc2cc(Cl)cc(Cl)c2)c1[N+](=O)[O-]` [MLS000581561] gave a negative logarithm of the EC50 (pEC50) of 4.12.
